Assay results published in US20040259823A1, “Cationic amphiphiles as transfection vehicles” (priority 2001, published 2004).

What was measured:
Assay type in all cases: cell-based
[1] = system: COS-7 and HepG2 cells; experiment: Transfection with pCMV GFP plasmid, % GFP positive cells by FACS (cell line not given); conditions: cell line and helper lipid not given
Procedure: (§1) Transfections were carried out following standard protocols as is described in EP 0755924. In numerous publications variations of transfection protocols are given. A person acquainted with the field of non-viral transfections, in particular transfections using cationic amphiphiles will be able to use the cationic amphiphiles of the invention in transfection methods known per se. In standard experiments COS-7 cells are transfected with plasmid DNA containing the β-galactosidase reporter gene. Upon successful transfection the cell produces the enzyme β-galactosidase whose activity can be easily measured. Other plasmids comprising alternative reporter genes such as the gene encoding Green Fluorescent Protein or Chloroamphenicol Acetyl Transferase are suited as well. For analyzing stable transfection a plasmid containing the neomycin resistance gene can be used. Toxicity of the cationic amphiphiles towards the cells can be monitored qualitatively and quantitatively by visual inspection of the cells and by a protein determination.
(§2) A solution of cationic amphiphile in a 50/50 molar ratio with DOPE, DOPC or cholesterol in chloroform was dried under a stream of nitrogen. The residual solvent was removed under vacuum. The lipid film was hydrated in water at room temperature and sonicated to clarity in a bath sonicator immediately before use.
(§3) A 4.7 kb pair plasmid containing the GFP reporter gene under control of the cytomegalovirus immediate early gene promoter/enhancer (pCMV GFP).DNA was isolated from E. coli using a Qiagen Plasmid Kit (QIAGEN Inc, USA). The plasmid concentration was determined by measuring the absoption at 260 nm using the relation 1.0 OD=50 μg/ml. The OD260/OD280 value was 1.95.
(§4) COS-7 and HepG2 cells were cultured in Dulbecco's Modified Eagle Medium (DMEM Gibco The Netherlands) containing 7% of fetal calf serum, 2 mM L-Glutamine, 100 units/ml of penicilin and […] of streptomycin at 37° C. in CO2/air (1:19).
(§5) Cells (1×10^5 cells/well) were seeded in 12-well plates and were allowed to grow overnight.
(§6) The complex of cationic amphiphile/helper lipid (1:1) with pCMV GFP was prepared at the charge ratio 2.5:1 (15 nmol lipid and 1 μg DNA), in 100 μl 10 mM HEPES (pH=7.4, 150 mM NaCl). After 10-15 min incubation at room temperature, the resulting complex was diluted in 1 ml medium (DMEM) and 0.5 ml of the mixture was added to the cells and incubated for 4 h at 37° C. The transfection efficiency expressed as a percentage of GFP positive cells was measured by FACS (Fluorescence Activated Cell Soorting) 48 hours after the transfection.
(§7) Control wells underwent identical steps except that no cationic amphiphile was added.

[2] = system: COS-7 and HepG2 cells; experiment: Cell survival after transfection (cell line not given); conditions: cell line and helper lipid not given; for % surv / % surv mean: Table 11
Procedure: as §1, §4, §5, §6, §7

[3] = system: HepG2; experiment: Transfection with pCMV GFP plasmid, % GFP positive cells by FACS (Table 3); conditions: HepG2, DOPE
Procedure: as §1, §2, §3, §4, §5, §6, §7

[4] = system: HepG2; experiment: Cell survival after transfection (Table 3); conditions: HepG2, DOPE; also: tested at 6.8 µM
Procedure: as §1, §4, §5, §6, §7
For % surv mean in this document: tested at 6.8 µM.

| SMILES | % TE ([1]; Table 1) [%] | % TE ([1]; Table 2) [%] | % TE ([1]; Table 7) [%] | % TE ([1]; Table 8) [%] | % TE ([1]; Table 9) [%] | % TE ([1]; Table 10) [%] | % surv cells ([2]; Table 1) [%] | % surv cells ([2]; Table 2) [%] | % surv cells ([2]; Table 7) [%] | % surv cells ([2]; Table 8) [%] | % surv cells ([2]; Table 9) [%] | % surv cells ([2]; Table 10) [%] | % TE ([1]; Table 4) [%] | % TE ([1]; Table 6) [%] | % surv cells ([2]; Table 4) [%] | % surv cells ([2]; Table 6) [%] | % TE ([3]; first value) [%] | % TE mean [3] [%] | % TE ([3]; second value) [%] | % surv cells ([4]; first value) [%] | other results |
| --- | --- | --- | --- | --- | --- | --- | --- | --- | --- | --- | --- | --- | --- | --- | --- | --- | --- | --- | --- | --- | --- |
| CCCCCCCC/C=C\CCCCCCCCC(CCCCCCCC/C=C\CCCCCCCC)c1cc[n+](C)cc1.[Cl-] [S2, reference compound] | 25.17 | 16.27 | 51.9 | 12.91 | 7.55 | 1.78 | 62.6 | 43.38 | 82.51 | 60.78 | 65.19 | 21.81 |  |  |  |  |  |  |  |  | % TE ([1]; Table 11, first value): 41.2%; % TE mean ([1]; Table 11): 42.8%; % TE ([1]; Table 11, second value): 44.4%; % surv ([2]; first value): 87.64%; % surv mean [2]: 87.24%; % surv ([2]; second value): 86.84% |
| CCCCCCCC/C=C\CCCCCCCC[n+]1ccc(CCCCCCCCCCCCCCCCCCC)cc1.[Cl-] [SF14, 1-(9′-cis-octadecenyl)4nonadecyl-pyridinium Chloride] |  |  |  |  |  |  |  |  |  |  |  |  | 7.72 | 1.6 | 78.64 | 93.14 |  |  |  |  | % TE ([1]; Table 5): 2.79%; % TE ([1]; Table 11, first value): 2.41%; % TE mean ([1]; Table 11): 3.1%; % TE ([1]; Table 11, second value): 3.78%; % surv cells ([2]; Table 5): 87.81%; % surv ([2]; first value): 88.63%; % surv mean [2]: 87.805%; % surv ([2]; second value): 86.98% |
| CCCCCCCC/C=C\CCCCCCCC[n+]1ccc(CCCCCCCCCCCCC)cc1.[Cl-] [SF30, 1-(9′-cis-octadecenyl)-4-tridecyl-pyridinium Chloride] | 9.73 | 16.61 | 13.61 | 3.09 | 13.61 | 5.32 | 78.45 | 46.45 | 84.28 | 75.35 | 84.28 | 60.16 |  |  |  |  |  |  |  |  |  |
| CCCCCCCCCCCCCc1cc[n+](CCCCCCCC)cc1.[Cl-] [SF32, 1-octyl-4-tridecyl-pyridinium Chloride] | 0.83 | 6.99 | 1.56 | 4.44 | 5.19 | 2.19 | 71.07 | 44.08 | 81.56 | 72.1 | 56.32 | 78.75 |  |  |  |  |  |  |  |  |  |
| CCCCCCCCCCCCCc1cc[n+](CCCCCCCCCC)cc1.[Cl-] [SF33, 1-decyl-4-tridecyl-pyridinium Chloride] | 3.07 | 9.71 | 0.05 | 3.82 | 3.85 | 5.77 | 78.47 | 39.82 | 87.79 | 75.05 | 68.99 | 69.94 |  |  |  |  |  |  |  |  |  |
| CCCCCCCCCCCCCc1cc[n+](CCCCCCCCCCCC)cc1.[Cl-] [SF34, 1-dodecyl-4-tridecyl-pyridinium Chloride] | 13.51 | 7.13 | 4.3 | 4.77 | 4.3 | 6.26 | 56.91 | 40.88 | 84.47 | 50.43 | 68.01 | 67.89 |  |  |  |  |  |  |  |  |  |
| CCCCCCCCCCCCCC[n+]1ccc(CCCCCCCCCCCCC)cc1.[Cl-] [SF35, 1-tetradecyl-4-tridecyl-pyridinium Chloride] | 18.92 | 10.48 | 6.4 | 3.23 | 3.32 | 3.23 | 65.49 | 42.35 | 82.58 | 72.37 | 68.67 | 70.39 |  |  |  |  |  |  |  |  |  |
| CCCCCCCCCCCCCCCC[n+]1ccc(CCCCCCCCCCCCC)cc1.[Cl-] [SF36, 1-hexadecyl-4-tridecyl-pyridinium Chloride] | 1.39 | 15.06 | 25.36 | 4.46 | 2.73 | 1.75 | 76.77 | 36.8 | 84.28 | 64.88 | 63.36 | 37.75 |  |  |  |  |  |  |  |  |  |
| CCCCCCCCCCCCCCCCCC[n+]1ccc(CCCCCCCCCCCCC)cc1.[Cl-] [SF37, 1-stearyl-4-tridecyl-pyridinium Chloride] | 4.4 | 18.39 | 8.5 | 5.02 | 2.95 | 2.74 | 70.04 | 41.67 | 75.65 | 70.7 | 64.58 | 63.85 |  |  |  |  |  |  |  |  |  |
| CCCCCCCC/C=C\CCCCCCCC[n+]1ccc(C)cc1.[Cl-] [SF38, 1-(9′-cis-octadecenyl)-4-methyl-pyridinium Chloride] |  |  |  |  |  |  |  |  |  |  |  |  | 5.43 | 0.47 | 63.19 | 94.13 | 0.82 | 0.555 | 0.29 | 23.6 | % surv cells Mean [4]: 22.05%; % surv cells ([4]; second value): 20.5% |
| CCCCCCCC/C=C\CCCCCCCC[n+]1ccc(CCC)cc1.[Cl-] [SF39, 1-(9′-cis-octadecenyl)-4-propyl-pyridinium Chloride] |  |  |  |  |  |  |  |  |  |  |  |  | 4.38 | 0.84 | 66.48 | 92.2 | 0.1 | 0.085 | 0.07 | 24.55 | % surv cells Mean [4]: 28.015%; % surv cells ([4]; second value): 31.48% |
| CCCCCCCC/C=C\CCCCCCCC[n+]1ccc(CCCCC)cc1.[Cl-] [SF40, 1-(9′-cis-octadecenyl)-4-pentyl-pyridinium Chloride] |  |  |  |  |  |  |  |  |  |  |  |  | 5.18 | 0.16 | 69.87 | 94.54 | 0.04 | 0.09 | 0.14 | 30.55 | % surv cells Mean [4]: 30.09%; % surv cells ([4]; second value): 29.63% |
| CCCCCCCC/C=C\CCCCCCCC[n+]1ccc(CCCCCCC)cc1.[Cl-] [SF41, 1-(9′-cis-octadecenyl)-4-heptyl-pyridinium Chloride] |  |  |  |  |  |  |  |  |  |  |  |  | 7.13 | 3.44 | 60.54 | 89.11 | 0.07 | 0.085 | 0.1 | 28.65 | % surv cells Mean [4]: 34.62%; % surv cells ([4]; second value): 40.59% |
| CCCCCCCC/C=C\CCCCCCCC[n+]1ccc(CCCCCCCCC)cc1.[Cl-] [SF42, 1-(9′-cis-octadecenyl)-4-nonyl-pyridinium Chloride] |  |  |  |  |  |  |  |  |  |  |  |  | 5.05 | 5.13 | 70.14 | 93.49 | 1.2 | 0.925 | 0.65 | 40.1 | % surv cells Mean [4]: 33.785%; % surv cells ([4]; second value): 27.47%; % TE ([1]; Table 5): 0.81%; % TE ([1]; Table 11, first value): 8.41%; % TE mean ([1]; Table 11): 7.95%; % TE ([1]; Table 11, second value): 7.49%; % surv cells ([2]; Table 5): 75.02%; % surv ([2]; first value): 86.37%; % surv mean [2]: 84.435%; % surv ([2]; second value): 82.5% |
